Among the data in BindingDB's records for patent US20250326769 (Nuvalent, 2025) are Ki values, retold here.

For test [1], the target named is ALK tyrosine kinase receptor [I1171N,D1203N] (UniProt Q9UM73, D1203N/I1171N). Put plainly: Biochemical Kinase Assay. As for the experimental part: (§1) First, 250 nL of compound dissolved in DMSO (100-fold of the desired concentration) was dispensed into a 384-well plate. A 12.5 μL substrate solution containing ATP (2 mM) and fluorogenic phosphorylation substrate AQT0101 ([…] for ALK and ROS, AssayQuant) or AQT0104 (26 μM for TRKB, AssayQuant) in buffer (50 mM HEPES pH 7.5, […], 0.5 mM EGTA, 10 mM MgCl2) was added and mixed thoroughly. Then, a 12.5 μL kinase solution containing ALK (1.5 nM, Carna, 08-518), ALK I1171N/D1203N (4 nM, SignalChem, custom-made), ROS1 (0.6 nM, Carma, 08-163), ROS1-G2032R (0.5 nM, SignalChem, R14-121BG), or TRKB-wt (1.5 nM, SignalChem, N17-11G) kinase domains in buffer ([…] pH 7.5, 0.01% Brij-[…], 0.4 mg/mL BSA, 0.5 mM EGTA, and 10 mM MgCl2) was added and mixed thoroughly. The plate was sealed and read by SpectraMax Paradigm at λ=485 nm every 2 minutes for 120 minutes at 30° C. Initial rates of reaction (v) were calculated from the change in fluorescence intensity over time during the initial, linear portion of the reaction.

Test [2] concerns the target BDNF/NT-3 growth factors receptor (Homo sapiens, UniProt Q16620). Put plainly: Biochemical Kinase Assay. The protocol:
as §1

Sequence of ALK tyrosine kinase receptor [I1171N,D1203N] (Q9UM73 19-1620 I1171N/D1203N limits assumed): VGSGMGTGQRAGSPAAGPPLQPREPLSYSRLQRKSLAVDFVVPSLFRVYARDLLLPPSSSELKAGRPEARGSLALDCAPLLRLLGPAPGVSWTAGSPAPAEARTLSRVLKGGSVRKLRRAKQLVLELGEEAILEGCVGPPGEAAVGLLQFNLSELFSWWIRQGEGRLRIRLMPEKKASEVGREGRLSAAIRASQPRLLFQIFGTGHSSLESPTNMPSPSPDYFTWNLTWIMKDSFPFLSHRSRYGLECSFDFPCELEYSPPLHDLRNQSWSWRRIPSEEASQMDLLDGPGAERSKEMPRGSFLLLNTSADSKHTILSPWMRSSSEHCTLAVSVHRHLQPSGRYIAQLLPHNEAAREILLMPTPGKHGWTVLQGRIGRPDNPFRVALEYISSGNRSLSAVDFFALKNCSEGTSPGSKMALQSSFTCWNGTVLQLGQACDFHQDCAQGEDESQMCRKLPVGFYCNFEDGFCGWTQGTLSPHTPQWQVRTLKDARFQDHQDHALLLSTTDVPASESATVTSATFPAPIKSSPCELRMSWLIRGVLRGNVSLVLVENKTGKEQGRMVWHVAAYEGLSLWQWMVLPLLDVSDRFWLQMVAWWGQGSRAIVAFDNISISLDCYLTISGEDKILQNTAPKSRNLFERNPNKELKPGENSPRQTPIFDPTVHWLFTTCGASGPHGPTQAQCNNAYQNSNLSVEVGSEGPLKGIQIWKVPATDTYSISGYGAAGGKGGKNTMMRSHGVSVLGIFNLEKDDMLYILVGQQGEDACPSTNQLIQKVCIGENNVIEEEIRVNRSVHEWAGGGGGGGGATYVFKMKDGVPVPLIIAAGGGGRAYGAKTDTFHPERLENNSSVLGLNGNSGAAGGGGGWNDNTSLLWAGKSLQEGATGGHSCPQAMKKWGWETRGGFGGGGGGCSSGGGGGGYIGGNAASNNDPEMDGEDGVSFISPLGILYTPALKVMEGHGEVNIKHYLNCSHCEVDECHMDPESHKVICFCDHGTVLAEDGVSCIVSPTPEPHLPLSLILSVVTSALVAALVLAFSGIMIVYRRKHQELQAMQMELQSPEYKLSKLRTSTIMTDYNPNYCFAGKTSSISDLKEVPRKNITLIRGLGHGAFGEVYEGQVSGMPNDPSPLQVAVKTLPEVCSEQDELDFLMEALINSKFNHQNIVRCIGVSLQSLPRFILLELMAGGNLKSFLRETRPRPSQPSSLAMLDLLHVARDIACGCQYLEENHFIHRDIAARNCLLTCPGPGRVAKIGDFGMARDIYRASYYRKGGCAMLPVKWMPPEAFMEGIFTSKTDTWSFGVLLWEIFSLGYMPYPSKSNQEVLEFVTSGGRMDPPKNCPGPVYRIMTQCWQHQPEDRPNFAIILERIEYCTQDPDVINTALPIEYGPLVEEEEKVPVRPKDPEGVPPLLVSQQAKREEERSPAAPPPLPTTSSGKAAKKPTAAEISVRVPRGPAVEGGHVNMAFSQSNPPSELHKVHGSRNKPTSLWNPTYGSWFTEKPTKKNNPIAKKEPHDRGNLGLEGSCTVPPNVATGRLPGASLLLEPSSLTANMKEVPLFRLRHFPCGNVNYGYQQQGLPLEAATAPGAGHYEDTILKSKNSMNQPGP
Sequence of BDNF/NT-3 growth factors receptor (Q16620 whole entry): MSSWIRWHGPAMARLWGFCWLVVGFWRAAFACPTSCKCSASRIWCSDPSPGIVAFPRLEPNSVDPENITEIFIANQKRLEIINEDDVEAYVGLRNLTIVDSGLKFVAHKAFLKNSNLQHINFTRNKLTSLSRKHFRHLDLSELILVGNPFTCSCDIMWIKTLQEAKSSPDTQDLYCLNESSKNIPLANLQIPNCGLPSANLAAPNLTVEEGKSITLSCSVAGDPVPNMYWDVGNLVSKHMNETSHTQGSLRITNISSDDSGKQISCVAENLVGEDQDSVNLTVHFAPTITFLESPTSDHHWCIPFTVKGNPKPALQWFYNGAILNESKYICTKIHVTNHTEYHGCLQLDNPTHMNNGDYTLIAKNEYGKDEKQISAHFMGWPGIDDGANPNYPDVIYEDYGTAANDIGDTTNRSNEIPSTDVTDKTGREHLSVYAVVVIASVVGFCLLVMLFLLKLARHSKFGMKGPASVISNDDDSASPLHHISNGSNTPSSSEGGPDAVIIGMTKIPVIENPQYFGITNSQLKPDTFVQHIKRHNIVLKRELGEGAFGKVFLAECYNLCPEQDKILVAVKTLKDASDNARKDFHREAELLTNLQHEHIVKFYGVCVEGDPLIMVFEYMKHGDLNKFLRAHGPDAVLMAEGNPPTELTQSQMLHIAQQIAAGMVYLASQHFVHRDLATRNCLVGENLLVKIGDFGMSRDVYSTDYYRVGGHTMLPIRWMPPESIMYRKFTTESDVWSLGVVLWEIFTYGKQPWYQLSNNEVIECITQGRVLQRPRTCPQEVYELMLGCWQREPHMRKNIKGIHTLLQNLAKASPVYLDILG

As for `CCN(C)C(=O)c1nn(CC2CC2)c2c1Cc1cn(C)nc1-c1ccc(F)cc1[C@@H](C)Oc1cc-2cnc1N` [US20250326769, Example 38], the Ki (as a rule, the equilibrium dissociation constant of an inhibitor or competing ligand from its target) in test [1] was less than 50 nM.

`CC(C)N(C)C(=O)c1nn(CC2CC2)c2c1Cc1cn(C)nc1-c1ccc(F)cc1[C@@H](C)Oc1cc-2cnc1N` [US20250326769, Example 37]: the results for the Ki in test [1] and in test [2] were less than 50 nM and greater than 500 nM, respectively.

In the case of `C[C@H]1Oc2cc(cnc2N)-c2c(c(C(N)=O)nn2CC2CC2)Cc2cccnc2-c2ccc(F)cc21` [US20250326769, Example 6], the Ki in test [1] was less than 50 nM.

In test [1], `Cc1cc2n(n1)-c1c(F)cc(F)cc1[C@@H](C)Oc1cc(cnc1N)-c1c(c(C(=O)N(C)C)nn1CC1CC1)C2` [US20250326769, Example 44] showed a Ki of less than 50 nM.

With `CCn1ncc2c1-c1cnc(N)c(c1)O[C@H](C)c1cc(F)ccc1-c1ncccc1O2` [US20250326769, Example 14], the Ki in test [1] and in test [2] was less than 50 nM throughout.
